What all share (type): cell-based, murine
One test deals with P388S cells. The test can be described thus: 72-hour growth inhibition of drug-sensitive P388S cells by anticancer drug alone or with modifier (Table I). The note with it: for IC50: Mus musculus, P388/S, 72 h, mean of two experiments in triplicate. The procedure: (§1) In performing the studies P388 that were sensitive to adriamycin (P388S) and P388 cells that were resistant to adriamycin (P388/ADR) were exposed to various concentrations of anticancer drug either alone or together with 5 μg/mL of modifier or sensitizer for 72 hours.
(§2) The P388 murine leukemia cells used in obtaining the data set forth in Table I and Table II were obtained from Southern Research Institute (Birmingham, Ala.) and were cultured from ascites fluids of tumor-bearing DMA/2 mice and maintained in Fischer's medium supplemented with 10% horse serum, 10 μM 2-mercaptoethanol, and gentamycin (50 μg/mL). Cells were counted with a Model ZF Coulter Counter (Coulter Electronics, Inc., Hialeah, Fla.). Viability was determined by trypan blue exclusion. The general methodology is described by W. D. Klohs, et al, Cancer Research 46, 4352-4356 (September 1986) and W. D. Klohs, et al, J. Nat'l. Cancer Inst. 75, 353-359 (1985).

The next test deals with P388/ADR cells. The test can be described thus: 72-hour growth inhibition of adriamycin-resistant P388/ADR cells by anticancer drug alone or with modifier (Table I). The note with it: Mus musculus. The procedure:
as §1, §2

The next test concerns MDR P388 cells. The test can be described thus: Intracellular drug levels in MDR P388 cells. To be noted: mechanism of chemosensitization.
In test [1] the test system is P388R cells. The test can be described thus: Potentiation of adriamycin activity and cell growth in P388 resistant cells (Table II). To be noted: for Degree of ADR Potentiation in P388R: footnote a (drawing 3). As to the method:
The P388 murine leukemia cells used in obtaining the data set forth in Table I and Table II were obtained from Southern Research Institute (Birmingham, Ala.) and were cultured from ascites fluids of tumor-bearing DMA/2 mice and maintained in Fischer's medium supplemented with 10% horse serum, 10 μM 2-mercaptoethanol, and gentamycin (50 μg/mL). Cells were counted with a Model ZF Coulter Counter (Coulter Electronics, Inc., Hialeah, Fla.). Viability was determined by trypan blue exclusion. […] Cancer Inst.

For test [2], the system named is P388R cells. Put plainly: Comparative chemosensitization studies in resistant P388R cells. The note with it: for effect of serum proteins on chemosensitizing activity: MDR cells. The procedure: as §1, §2
Where [3] appears, read: P388S, anticancer drug alone, modifier none, read-out: ID50 (concentration that inhibits 72-hour cell growth by 50%).
Setting [4] is: P388S, anticancer drug with modifier CsA (cyclosporin A) 5 μg/mL, read-out: ID50 (concentration that inhibits 72-hour cell growth by 50%).
Where [5] appears, read: P388S, anticancer drug with modifier TIOP (tioperidone) 5 μg/mL, read-out: ID50 (concentration that inhibits 72-hour cell growth by 50%).
[6] abbreviates: P388S, anticancer drug with modifier VER (verapamil) 5 μg/mL, read-out: ID50 (concentration that inhibits 72-hour cell growth by 50%).
The mark [7] stands for this setting: anticancer drug alone, modifier none, mean of two experiments in triplicate, read-out: ID50 (concentration that inhibits 72-hour cell growth by 50%).
Setting [8] is: anticancer drug with modifier CsA (cyclosporin A) 5 μg/mL, mean of two experiments in triplicate, read-out: ID50 (concentration that inhibits 72-hour cell growth by 50%).
Where [9] appears, read: anticancer drug with modifier TIOP (tioperidone) 5 μg/mL, mean of two experiments in triplicate, read-out: ID50 (concentration that inhibits 72-hour cell growth by 50%).
[10] abbreviates: anticancer drug with modifier VER (verapamil) 5 μg/mL, mean of two experiments in triplicate, read-out: ID50 (concentration that inhibits 72-hour cell growth by 50%).

Counter-ions that a name gives are not always drawn. Like-named read-outs stand apart in the source and are kept apart here.

On to `COc1cccc2c1C(=O)c1c(O)c3c(c(O)c1C2=O)C[C@@](O)(C(=O)CO)C[C@@H]3O[C@H]1C[C@H](N)[C@H](O)[C@H](C)O1` [Adriamycin], for which the IC50 amounted to 156 nM with P388S cells (setting [3]); 147 nM with P388S cells (setting [4]); 152 nM in the test on P388S cells (setting [5]); 152 nM in the test on P388S cells (setting [6]); 7820 nM in the test on P388/ADR cells (setting [7]); 195 nM with P388/ADR cells (setting [8]). Besides, the IC50 in the test on P388/ADR cells (setting [9]) was 174 nM; in the test on P388/ADR cells (setting [10]) it was 710 nM.
In the case of `CNCCNc1ccc2c3c(nn2CCNCCO)-c2c(O)ccc(O)c2C(=O)c13` [CI-937, 7,10-dihydroxy-2-[2-[(2-hydroxyethyl)amino]ethyl]-5-[[2-(methylamino)ethyl]amino]anthra[1,9-cd]pyrazol-6(2H)-one dihydrochloride], the IC50 with P388S cells (setting [3]) stood at 145 nM; in the test with P388S cells (setting [4]), 135 nM; in the test on P388S cells (setting [5]), 145 nM; in the test with P388S cells (setting [6]), 147 nM; in the test on P388/ADR cells (setting [7]) it was 5730 nM; with P388/ADR cells (setting [8]), 151 nM. Moreover, the IC50 in the test with P388/ADR cells (setting [9]) is 132 nM; with P388/ADR cells (setting [10]), 524 nM.
`COc1cccc2c1C(=O)c1c(O)c3c(c(O)c1C2=O)C[C@@](O)(C(C)=O)C[C@@H]3O[C@H]1C[C@H](N)[C@H](O)[C@H](C)O1` [Daunomycin]: the IC50 was 98 nM in the test on P388S cells (setting [3]); 95 nM in the test on P388S cells (setting [4]); 96 nM in the test on P388S cells (setting [5]); 93 nM in the test on P388S cells (setting [6]); 2770 nM in the test on P388/ADR cells (setting [7]); 108 nM in the test on P388/ADR cells (setting [8]). For the same molecule, the IC50 with P388/ADR cells (setting [9]) was found to be 103 nM; in the test with P388/ADR cells (setting [10]), 329 nM.
As to `COc1cc([C@@H]2c3cc4c(cc3[C@@H](O[C@@H]3O[C@@H]5CO[C@@H](C)O[C@H]5[C@H](O)[C@H]3O)[C@H]3COC(=O)[C@H]23)OCO4)cc(OC)c1O` [Etoposide], the IC50 stood at 24.1 nM in the test with P388S cells (read-out: ID50 (concentration that inhibits 72-hour cell growth by 50%), P388S, anticancer drug alone, modifier none); 19.8 nM with P388S cells (read-out: ID50 (concentration that inhibits 72-hour cell growth by 50%), P388S, anticancer drug with modifier CsA (cyclosporin A) 5 μg/mL); 21.2 nM with P388S cells (read-out: ID50 (concentration that inhibits 72-hour cell growth by 50%), P388S, anticancer drug with modifier TIOP (tioperidone) 5 μg/mL); 20.1 nM with P388S cells (read-out: ID50 (concentration that inhibits 72-hour cell growth by 50%), P388S, anticancer drug with modifier VER (verapamil) 5 μg/mL); 5100 nM with P388/ADR cells (read-out: ID50 (concentration that inhibits 72-hour cell growth by 50%), P388/ADR, anticancer drug alone, modifier none, mean of two experiments in triplicate); 252 nM in the test with P388/ADR cells (read-out: ID50 (concentration that inhibits 72-hour cell growth by 50%), P388/ADR, anticancer drug with modifier CsA (cyclosporin A) 5 μg/mL, mean of two experiments in triplicate). Besides, the IC50 in the test on P388/ADR cells (read-out: ID50 (concentration that inhibits 72-hour cell growth by 50%), P388/ADR, anticancer drug with modifier TIOP (tioperidone) 5 μg/mL, mean of two experiments in triplicate) turned out to be 433 nM; with P388/ADR cells (read-out: ID50 (concentration that inhibits 72-hour cell growth by 50%), P388/ADR, anticancer drug with modifier VER (verapamil) 5 μg/mL, mean of two experiments in triplicate), 872 nM.
For `CCCSc1ccccc1N1CCN(CCCCn2c(=O)[nH]c3ccccc3c2=O)CC1` [Example 1, 3-[4-[4-[2-(propylthio)phenyl]-1-piperazinyl]butyl-2,4-(1H,3H)-quinazolinedione (tioperidone)monohydrochloride], the “effect on intracellular drug levels in MDR P388 cells” value with MDR P388 cells is listed as “increasing the intracellular drug levels”. In addition, in the test on P388R cells [1] (Mus musculus, P388, test compound at 5 μM, read-out: % of Control Cell Growth), the activity at 5 µM turned out to be 100%. Further, the activity at 10 µM in the test with P388R cells [1] (Mus musculus, P388, test compound at 10 μM, read-out: % of Control Cell Growth) was determined as 98%. Also, the “Degree of ADR Potentiation in P388R” value was determined as 20.8 in the test with P388R cells [1] (test compound at 5 μM with adriamycin) and 44.7 in the test on P388R cells [1] (test compound at 10 μM with adriamycin). Besides, in the test with P388S cells (modifier with adriamycin), the “effect on adriamycin activity in drug-sensitive parent P388S cells” value is listed as “little effect”. In addition, the “effect of serum proteins on chemosensitizing activity” value with P388R cells [2] is recorded as “does not appear to be altered by serum proteins”. Further, in the test with P388R cells [2] (compared with verapamil, amiodarone and cyclosporin A), the “potentiating the activity of adriamycin in P388R cells” value was “superior to all of the other agents”. The “sensitization of P388R cells to vincristine, trimetrexate, and CI-937” value with P388R cells [2] (modifier with vincristine, trimetrexate or CI-937) is reported as “fully sensitized”.
As to `COc1cc(NCc2ccc3nc(N)nc(N)c3c2C)cc(OC)c1OC` [Trimetrexate], the IC50 with P388S cells (setting [3]) is 12 nM; in the test on P388S cells (setting [4]), 11 nM; in the test on P388S cells (setting [5]), 12 nM; in the test with P388S cells (setting [6]), 12 nM; with P388/ADR cells (setting [7]) it was 270 nM; in the test on P388/ADR cells (setting [8]) it was 12 nM. For the same molecule, the IC50 was 14 nM in the test on P388/ADR cells (setting [9]) and 29 nM in the test on P388/ADR cells (setting [10]).
`CC[C@]1(O)C[C@H]2CN(CCc3c([nH]c4ccccc34)[C@@](C(=O)OC)(c3cc4c(cc3OC)N(C=O)[C@H]3[C@@](O)(C(=O)OC)[C@H](OC(C)=O)[C@]5(CC)C=CCN6CC[C@]43[C@@H]65)C2)C1` [Vincristine]: the IC50 in the test on P388S cells (setting [3]) was found to be 21 nM; in the test on P388S cells (setting [4]), 21 nM; with P388S cells (setting [5]), 20 nM; in the test on P388S cells (setting [6]), 21 nM; with P388/ADR cells (setting [7]), 554 nM; in the test on P388/ADR cells (setting [8]), 27 nM. For the same molecule, the IC50 was 22 nM in the test with P388/ADR cells (setting [9]) and 30 nM in the test on P388/ADR cells (setting [10]).
Consider `CCCCc1oc2ccccc2c1C(=O)c1cc(I)c(OCCN(CC)CC)c(I)c1` [amiodarone, reference compound], for which, in the test with P388R cells [2], the “effect of serum proteins on chemosensitizing activity” value is “diminished by binding to serum proteins”.
